Eight compounds from PMC12637020, “Synthesis and biological evaluation of novel hydrazone derivatives for the treatment of Alzheimer's disease” (RSC Advances, 2025) can be followed below.

The target in one assay is BChE enzyme (Homo sapiens, UniProt P06276). In words: biochemical. The note with it: for inhibition at 1000 µM: read-out: BChE% inhibition 10^−3 M; for inhibition at 100 µM: read-out: BChE% inhibition 10^−4 M. The text has this:
(§1) The assay was completed in two steps.
(§2) The potential inhibitory effects of the obtained molecules on the AChE and BChE enzymes was examined using a variation of the Ellman method.[31,33,41–43] Distilled water from the Millipore/Milli-Q purification apparatus was utilized at every stage of the biological activity investigations during the evaluation process. In less than a week, all the solutions required for the biological investigation were meticulously prepared from scratch. A “BioTek-Precision Power (United States)” robotic pipetting system was utilized to distribute the prepared solutions and apply the test compounds and enzyme–substrate solutions to 96-well plates. The “BioTek-Synergy H1 Microplate Reader (United States)” was employed to establish and follow the enzyme protocol for spectrophotometric measurements. Solutions of the compounds were prepared at two different concentrations, 10^−3 M and 10^−4 M, using dimethylsulfoxide (DMSO) as 2% solution, and these were used in biological activity studies.

In a further assay the target is AChE enzyme (Homo sapiens, UniProt P22303). Put plainly: biochemical. The note with it: for inhibition at 1000 µM: read-out: AChE% inhibition 10^−3 M; for inhibition at 100 µM: read-out: AChE% inhibition 10^−4 M; for IC50: tested at 10 to 0.001 µM. The format is biochemical.
Source text: as §1, §2

Sequence of BChE enzyme (P06276 29-602, species assumed): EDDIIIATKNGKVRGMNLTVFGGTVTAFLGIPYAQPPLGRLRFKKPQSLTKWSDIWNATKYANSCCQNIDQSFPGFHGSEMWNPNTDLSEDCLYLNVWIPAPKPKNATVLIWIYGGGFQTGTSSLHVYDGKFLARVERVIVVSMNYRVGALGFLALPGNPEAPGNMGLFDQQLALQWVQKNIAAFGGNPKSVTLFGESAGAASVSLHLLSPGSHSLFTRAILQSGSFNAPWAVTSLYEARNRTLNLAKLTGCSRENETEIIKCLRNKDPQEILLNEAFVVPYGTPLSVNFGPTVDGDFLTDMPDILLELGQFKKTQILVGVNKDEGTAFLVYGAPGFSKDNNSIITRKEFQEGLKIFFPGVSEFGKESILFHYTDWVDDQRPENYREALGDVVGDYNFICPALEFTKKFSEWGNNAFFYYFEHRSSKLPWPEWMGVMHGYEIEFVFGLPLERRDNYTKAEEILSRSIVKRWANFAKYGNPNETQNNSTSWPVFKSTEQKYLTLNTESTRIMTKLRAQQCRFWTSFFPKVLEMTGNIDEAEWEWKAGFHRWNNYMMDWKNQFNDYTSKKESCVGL
Sequence of AChE enzyme (P22303 32-614): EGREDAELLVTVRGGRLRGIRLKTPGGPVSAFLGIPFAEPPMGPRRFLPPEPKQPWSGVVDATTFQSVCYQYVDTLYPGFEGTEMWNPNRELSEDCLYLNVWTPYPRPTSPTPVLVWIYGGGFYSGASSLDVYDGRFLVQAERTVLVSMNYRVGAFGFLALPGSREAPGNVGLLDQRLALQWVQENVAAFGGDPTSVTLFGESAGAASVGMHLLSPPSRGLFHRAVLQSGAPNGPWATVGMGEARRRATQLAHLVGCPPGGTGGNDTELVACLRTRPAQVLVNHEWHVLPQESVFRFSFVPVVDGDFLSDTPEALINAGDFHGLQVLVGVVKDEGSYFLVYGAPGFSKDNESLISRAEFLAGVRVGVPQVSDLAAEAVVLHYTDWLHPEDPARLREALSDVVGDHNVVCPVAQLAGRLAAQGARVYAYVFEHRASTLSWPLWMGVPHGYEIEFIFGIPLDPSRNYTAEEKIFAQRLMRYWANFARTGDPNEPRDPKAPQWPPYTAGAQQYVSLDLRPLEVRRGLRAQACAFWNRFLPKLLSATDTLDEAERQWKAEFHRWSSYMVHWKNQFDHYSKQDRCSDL

As for `CC(=NN=c1scc(-c2ccc(C)cc2)n1C)c1ccc(N2CCCCC2)cc1` [D1a, 3-Methyl-2-((1-(4-(piperidin-1-yl)phenyl)ethylidene)hydrazineylidene)-4-(p-tolyl)-2,3-dihydrothiazole], on BChE enzyme, the IC50 is greater than 1000 µM, the inhibition at 1000 µM came out at 32.5 ± 1.06% and the inhibition at 100 µM was found to be 20.4 ± 0.984%. Besides, on AChE enzyme, the inhibition at 1000 µM is 40.5 ± 1.92%, the inhibition at 100 µM was determined as 36.5 ± 1.72% and the IC50 is greater than 1000 µM.

As to `CC(=NN=c1scc(-c2ccc(F)cc2)n1C)c1ccc(N2CCCCC2)cc1` [D1b, 4-(4-Fluorophenyl)-3-methyl-2-((1-(4-(piperidin-1 yl)phenyl)ethylidene)hydrazineylidene)-2,3-dihydrothiazole], at BChE enzyme, the IC50 was greater than 1000 µM, the inhibition at 1000 µM was determined as 30.2 ± 0.936% and the inhibition at 100 µM was 19.6 ± 0.864%. In addition, on AChE enzyme, the inhibition at 1000 µM stood at 37.2 ± 1.54%, the inhibition at 100 µM was 31.1 ± 1.36% and the IC50 was greater than 1000 µM.

Consider `CC(=NN=c1scc(-c2ccc(Cl)cc2)n1C)c1ccc(N2CCCCC2)cc1` [D1d, 4-(4-Chlorophenyl)-3-methyl-2-((1-(4-(piperidin-1-yl)phenyl)ethylidene)hydrazineylidene)-2,3-dihydrothiazole], for which, on BChE enzyme, the IC50 is greater than 1000 µM, the inhibition at 1000 µM is 23 ± 0.725% and the inhibition at 100 µM is 15.2 ± 0.734%. Moreover, on AChE enzyme, the inhibition at 1000 µM turned out to be 55.7 ± 2.08%, the inhibition at 100 µM came to 29.6 ± 1.23% and the IC50 was greater than 100 µM.

As to `COc1ccc(-c2csc(=NN=C(C)c3ccc(N4CCCCC4)cc3)n2C)cc1` [D1e, 4-(4-Methoxyphenyl)-3-methyl-2-((1-(4-(piperidin-1-yl)phenyl)ethylidene)hydrazineylidene)-2,3-dihydrothiazole], on BChE enzyme, the IC50 was greater than 1000 µM, the inhibition at 1000 µM was found to be 27.6 ± 1.08% and the inhibition at 100 µM is 17.9 ± 0.71%. Moreover, the inhibitory activity entry at AChE enzyme (at concentrations of 1000 and 100 µM) is reported as “more than 50%”. Besides, on AChE enzyme, the inhibition at 1000 µM turned out to be 92.6 ± 1.8%, the inhibition at 100 µM was determined as 84.1 ± 2.15% and the IC50 was 0.613 ± 0.025 µM.

As for `CC(=NN=c1scc(-c2ccc(Cl)cc2Cl)n1C)c1ccc(N2CCCCC2)cc1` [D1g, 4-(2,4-Dichlorophenyl)-3-methyl-2-((1-(4-(piperidin-1-yl)phenyl)ethylidene)hydrazineylidene)-2,3-dihydrothiazole], on BChE enzyme, the IC50 was greater than 1000 µM, the inhibition at 1000 µM turned out to be 36.3 ± 1.56% and the inhibition at 100 µM worked out at 31.1 ± 1.07%. On AChE enzyme, the inhibition at 1000 µM was 63.5 ± 1.96%, the inhibition at 100 µM worked out at 16.9 ± 0.778% and the IC50 was greater than 100 µM.

Regarding `CC(=NN=c1scc(-c2ccc(Cl)c(Cl)c2)n1C)c1ccc(N2CCCCC2)cc1` [D1h, 4-(3,4-Dichlorophenyl)-3-methyl-2-((1-(4-(piperidin-1-yl)phenyl)ethylidene)hydrazineylidene)-2,3-dihydrothiazole], at BChE enzyme, the IC50 is greater than 1000 µM, the inhibition at 1000 µM was 31.5 ± 1.31% and the inhibition at 100 µM was 24.3 ± 0.925%. In addition, at AChE enzyme, the inhibition at 1000 µM was 27.6 ± 1.18%, the inhibition at 100 µM was found to be 14.7 ± 0.646% and the IC50 is greater than 1000 µM.

Consider `CC(=NN=c1scc(-c2ccc(C)cc2C)n1C)c1ccc(N2CCCCC2)cc1` [D1i, 4-(2,4-Dimethylphenyl)-3-methyl-2-((1-(4-(piperidin-1-yl)phenyl)ethylidene)hydrazineylidene)-2,3-dihydrothiazole], for which, on BChE enzyme, the half-maximal inhibitory concentration (IC50) was greater than 1000 µM, the inhibition at 1000 µM came out at 40.9 ± 1.86% and the inhibition at 100 µM came to 29.5 ± 0.846%. For the same compound, at AChE enzyme, the inhibition at 1000 µM came to 59.3 ± 1.29%, the inhibition at 100 µM was 13.7 ± 0.52% and the IC50 was greater than 100 µM.

Turning to `C=CCn1c(-c2ccc(C)cc2)csc1=NN=C(C)c1ccc(N2CCCCC2)cc1` [D2a, 3-Allyl-2-((1-(4-(piperidin-1-yl)phenyl)ethylidene)hydrazineylidene)-4-(p-tolyl)-2,3-dihydrothiazole], on BChE enzyme, the IC50 was greater than 1000 µM, the inhibition at 1000 µM was 30.8 ± 1.07% and the inhibition at 100 µM came out at 20.9 ± 0.802%. Moreover, at AChE enzyme, the inhibition at 1000 µM stood at 38.6 ± 1.35%, the inhibition at 100 µM amounted to 30.1 ± 1.45% and the IC50 is greater than 1000 µM.

A word on the IC50: it is the midpoint of a concentration-inhibition curve. As usually defined, the inhibition is the change of the read-out against control, counted positive when it falls.
